Measured values from article PMC8725944, “Design and synthesis of chromone-nitrogen mustard derivatives and evaluation of anti-breast cancer activity” (Journal of Enzyme Inhibition and Medicinal Chemistry, 2021).

The compounds below were run on TNBC cell line MDA-MB-231 (assay: CCK-8 assay, antiproliferative activity against MDA-MB-231). Conditions: Homo sapiens, MDA-MB-231, 72 h, read-out: IC50 MDA-MB-231.

Question: How did the IC50 turn out when `COc1cccc2c1C(=O)c1c(O)c3c(c(O)c1C2=O)C[C@@](O)(C(=O)CO)C[C@@H]3O[C@H]1C[C@H](N)[C@H](O)[C@H](C)O1` [Adriamycin, reference compound] was run?
Answer: The IC50 was 2.94 ± 0.12 µM.

Question: How did the IC50 turn out when `N[C@@H](Cc1ccc(N(CCCl)CCCl)cc1)C(=O)O` [Compound 5, melphalan, reference compound] was run?
Answer: Its IC50 is over 20 µM.

Question: Which IC50 does the source give for `O=CN[C@@H](Cc1ccc(N(CCCl)CCCl)cc1)C(=O)O` [Compound 6, formylmerphalan, reference compound] here?
Answer: Its IC50 is over 20 µM.

Question: Which IC50 does the source give for `CC(C)(C)OC(=O)N[C@@H](Cc1ccc(N(CCCl)CCCl)cc1)C(=O)O` [Compound 7, Boc-protected melphalan, reference compound] here?
Answer: The IC50 was over 20 µM.

Question: Which IC50 does the source give for `COC(=O)[C@H](Cc1ccc(N(CCCl)CCCl)cc1)NC(=O)CCC(=O)O` [Compound 9, reference compound] here?
Answer: The IC50 was over 20 µM.

Question: Which IC50 does the source give for `COC(=O)[C@H](Cc1ccc(N(CCCl)CCCl)cc1)NC(=O)CCCC(=O)O` [Compound 10, reference compound] here?
Answer: Its IC50 is over 20 µM.

Question: Which IC50 does the source give for `Cc1ccc2occ(CO)c(=O)c2c1` [Compound 15] here?
Answer: The IC50 was over 20 µM.

Question: How did the IC50 turn out when `COc1ccc2occ(CO)c(=O)c2c1` [Compound 16] was run?
Answer: Its IC50 is over 20 µM.

Question: `Cc1ccc2occ(COC(=O)c3ccc(N(CCCl)CCCl)cc3)c(=O)c2c1` [Compound 17a, (6-Methyl-4-oxo-4H-chromen-3-yl)methyl 4-(bis(2-chloroethyl)amino)benzoate] was tested. Which IC50 did it give?
Answer: The IC50 was 9.57 ± 0.65 µM.

Question: How did the IC50 turn out when `Cc1ccc2occ(COC(=O)[C@H](Cc3ccc(N(CCCl)CCCl)cc3)NC=O)c(=O)c2c1` [Compound 17b, (6-Methyl-4-oxo-4H-chromen-3-yl)methyl (S)-3–(4-(bis(2-chloroethyl)amino)phenyl)-2-formamidopropanoate] was run?
Answer: Its IC50 is 13.2 ± 1.12 µM.

Question: `Cc1ccc2occ(COC(=O)[C@H](Cc3ccc(N(CCCl)CCCl)cc3)NC(=O)OC(C)(C)C)c(=O)c2c1` [Compound 17c, (6-Methyl-4-oxo-4H-chromen-3-yl)methyl (S)-3-(4-(bis(2-chloroethyl)amino)phenyl)-2-((tert-butoxycarbonyl)amino)propanoate] was tested. Which IC50 did it give?
Answer: The IC50 was over 20 µM.

Question: Which IC50 does the source give for `COC(=O)[C@H](Cc1ccc(N(CCCl)CCCl)cc1)NC(=O)CCC(=O)OCc1coc2ccc(C)cc2c1=O` [Compound 17d, (6-Methyl-4-oxo-4H-chromen-3-yl)methyl (S)-4-((3-(4-(bis(2-chloroethyl)amino)phenyl)-1-methoxy-1-oxopropan-2-yl)amino)-4-oxobutanoate] here?
Answer: The IC50 was 11.4 ± 0.2 µM.

Question: For `COC(=O)[C@H](Cc1ccc(N(CCCl)CCCl)cc1)NC(=O)CCCC(=O)OCc1coc2ccc(C)cc2c1=O` [Compound 17e, (6-Methyl-4-oxo-4H-chromen-3-yl)methyl (S)-5-((3-(4-(bis(2-chloroethyl)amino)phenyl)-1-methoxy-1-oxopropan-2-yl)amino)-5-oxopentanoate], which IC50 is on record?
Answer: Its IC50 is 8.32 ± 0.34 µM.

Question: Which IC50 does the source give for `COc1ccc2occ(COC(=O)c3ccc(N(CCCl)CCCl)cc3)c(=O)c2c1` [Compound 18a, (6-Methoxy-4-oxo-4H-chromen-3-yl)methyl 4-(bis(2-chloroethyl)amino)benzoate] here?
Answer: Its IC50 is 9.47 ± 0.38 µM.

Question: For `COc1ccc2occ(COC(=O)[C@H](Cc3ccc(N(CCCl)CCCl)cc3)NC=O)c(=O)c2c1` [Compound 18b, (6-Methoxy-4-oxo-4H-chromen-3-yl)methyl (S)-3-(4-(bis(2-chloroethyl)amino)phenyl)-2-formamidopropanoate], which IC50 is on record?
Answer: The IC50 was 11.5 ± 0.35 µM.

Question: `COc1ccc2occ(COC(=O)[C@H](Cc3ccc(N(CCCl)CCCl)cc3)NC(=O)OC(C)(C)C)c(=O)c2c1` [Compound 18c, (6-Methoxy-4-oxo-4H-chromen-3-yl)methyl (S)-3-(4-(bis(2-chloroethyl)amino)phenyl)-2-((tert-butoxycarbonyl)amino)propanoate] was tested. Which IC50 did it give?
Answer: The IC50 was 16.7 ± 0.69 µM.

Question: With `COC(=O)[C@H](Cc1ccc(N(CCCl)CCCl)cc1)NC(=O)CCC(=O)OCc1coc2ccc(OC)cc2c1=O` [Compound 18d, (6-Methoxy-4-oxo-4H-chromen-3-yl)methyl (S)-4-((3-(4-(bis(2-chloroethyl)amino)phenyl)-1-methoxy-1-oxopropan-2-yl)amino)-4-oxobutanoate] as the compound, how does the IC50 read?
Answer: The IC50 was 12.8 ± 0.32 µM.

Question: Which IC50 does the source give for `COC(=O)[C@H](Cc1ccc(N(CCCl)CCCl)cc1)NC(=O)CCCC(=O)OCc1coc2ccc(OC)cc2c1=O` [Compound 18e, (6-Methoxy-4-oxo-4H-chromen-3-yl)methyl (S)-5-((3-(4-(bis(2-chloroethyl)amino)phenyl)-1-methoxy-1-oxopropan-2-yl)amino)-5-oxopentanoate] here?
Answer: The IC50 was 8.98 ± 0.26 µM.

Question: For `Cc1ccc2occ(CN)c(=O)c2c1` [Compound 19], which IC50 is on record?
Answer: Its IC50 is over 20 µM.

Question: How did the IC50 turn out when `COc1ccc2occ(CN)c(=O)c2c1` [Compound 20] was run?
Answer: The IC50 was over 20 µM.

Question: `Cc1ccc2occ(CNC(=O)c3ccc(N(CCCl)CCCl)cc3)c(=O)c2c1` [Compound 21a, 4-(Bis(2-chloroethyl)amino)-N-((6-methyl-4-oxo-4H-chromen-3-yl)methyl)benzamide] was tested. Which IC50 did it give?
Answer: Its IC50 is 14.9 ± 1.06 µM.

Question: How did the IC50 turn out when `Cc1ccc2occ(CNC(=O)[C@H](Cc3ccc(N(CCCl)CCCl)cc3)NC=O)c(=O)c2c1` [Compound 21b, (S)-3-(4-(bis(2-chloroethyl)amino)phenyl)-2-formamido-N-((6-methyl-4-oxo-4H-chromen-3-yl)methyl)propanamide] was run?
Answer: Its IC50 is 9.42 ± 0.29 µM.

Question: `Cc1ccc2occ(CNC(=O)[C@H](Cc3ccc(N(CCCl)CCCl)cc3)NC(=O)OC(C)(C)C)c(=O)c2c1` [Compound 21c, Tert-butyl (S)-(3-(4-(bis(2-chloroethyl)amino)phenyl)-1-(((6-methyl-4-oxo-4H-chromen-3-yl)methyl)amino)-1-oxopropan-2-yl)carbamate] was tested. Which IC50 did it give?
Answer: Its IC50 is 12.7 ± 0.48 µM.

Question: With `COC(=O)[C@H](Cc1ccc(N(CCCl)CCCl)cc1)NC(=O)CCC(=O)NCc1coc2ccc(C)cc2c1=O` [Compound 21d, Methyl (S)-3-(4-(bis(2-chloroethyl)amino)phenyl)-2-(4-(((6-methyl-4-oxo-4H-chromen-3-yl)methyl)amino)-4-oxobutanamido)propanoate] as the compound, how does the IC50 read?
Answer: The IC50 was 6.87 ± 0.19 µM.

Question: For `COC(=O)[C@H](Cc1ccc(N(CCCl)CCCl)cc1)NC(=O)CCCC(=O)NCc1coc2ccc(C)cc2c1=O` [Compound 21e, Methyl (S)-3-(4-(bis(2-chloroethyl)amino)phenyl)-2–(5-(((6-methyl-4-oxo-4H-chromen-3-yl)methyl)amino)-5-oxopentanamido)propanoate], which IC50 is on record?
Answer: Its IC50 is 4.47 ± 0.15 µM.

Question: `COc1ccc2occ(CNC(=O)c3ccc(N(CCCl)CCCl)cc3)c(=O)c2c1` [Compound 22a, 4-(Bis(2-chloroethyl)amino)-N-((6-methoxy-4-oxo-4H-chromen-3-yl)methyl)benzamide] was tested. Which IC50 did it give?
Answer: The IC50 was 10.6 ± 0.58 µM.

Question: Which IC50 does the source give for `COc1ccc2occ(CNC(=O)[C@H](Cc3ccc(N(CCCl)CCCl)cc3)NC=O)c(=O)c2c1` [Compound 22b, (S)-3-(4-(bis(2-chloroethyl)amino)phenyl)-2-formamido-N-((6-methoxy-4-oxo-4H-chromen-3-yl)methyl)propanamide] here?
Answer: The IC50 was 4.65 ± 0.22 µM.

Question: How did the IC50 turn out when `COc1ccc2occ(CNC(=O)[C@H](Cc3ccc(N(CCCl)CCCl)cc3)NC(=O)OC(C)(C)C)c(=O)c2c1` [Compound 22c, Tert-butyl (S)-(3-(4-(bis(2-chloroethyl)amino)phenyl)-1-(((6-methoxy-4-oxo-4H-chromen-3-yl)methyl)amino)-1-oxopropan-2-yl)carbamate] was run?
Answer: The IC50 was 9.87 ± 0.36 µM.

Question: With `COC(=O)[C@H](Cc1ccc(N(CCCl)CCCl)cc1)NC(=O)CCC(=O)NCc1coc2ccc(OC)cc2c1=O` [Compound 22d, Methyl (S)-3-(4-(bis(2-chloroethyl)amino)phenyl)-2-(4-(((6-methoxy-4-oxo-4H-chromen-3-yl)methyl)amino)-4-oxobutanamido)propanoate] as the compound, how does the IC50 read?
Answer: Its IC50 is 3.05 ± 0.14 µM.
